According to ChEMBL document CHEMBL4033751, “Synthesis and biological evaluation of caffeic acid derivatives as potent inhibitors of α-MSH-stimulated melanogenesis” (Bioorg Med Chem Lett, 2017):

Experiments:
B16 = assay: Inhibition of alpha-MSH-stimulated melanogenesis in mouse B16 cells assessed as reduction in melanin formation; assay type: functional, cell-based
[1] = Cytotoxicity in mouse B16 cells assessed as cell viability at 5 uM by MTT assay; assay type: cell-based; conditions: read-out: Activity
[2] = Cytotoxicity in mouse B16 cells assessed as cell viability at 10 uM by MTT assay; assay type: cell-based; conditions: read-out: Activity
[3] = Cytotoxicity in mouse B16 cells assessed as cell viability at 2.5 uM by MTT assay; assay type: cell-based; conditions: read-out: Activity
[4] = Cytotoxicity in mouse B16 cells assessed as cell viability at 20 uM by MTT assay; assay type: cell-based; conditions: read-out: Activity
[5] = Cytotoxicity in mouse B16 cells assessed as cell viability at 40 uM by MTT assay; assay type: cell-based; conditions: read-out: Activity

Compound | IC50 (B16) | viability at 5 µM [1] | viability at 10 µM [2] | viability at 2.5 µM [3] | viability at 20 µM [4] | viability at 40 µM [5]
O=C(CCc1ccc(O)c(O)c1)O[C@@H]1C[C@](O)(C(=O)O)C[C@@H](O)[C@H]1O | > 40 µM | – | – | – | – | –
O=C(/C=C/c1ccc(O)c(O)c1)N1CCNCC1 | > 40 µM | – | – | – | 31% | –
COC(=O)[C@]1(O)C[C@@H](O)[C@@H](O)[C@H](OC(=O)/C=C/c2ccc(O)c(O)c2)C1 [CHLOROGENIC ACID METHYL ESTER] | > 40 µM | – | – | – | – | –
OC[C@H]1O[C@@H](Oc2ccc(O)cc2)[C@H](O)[C@@H](O)[C@@H]1O [ARBUTIN] | 400 µM | – | – | – | – | –
O=C(/C=C/c1ccc(O)c(O)c1)NCc1ccccc1 | 8 µM | – | 23% | – | – | –
COc1ccccc1CNC(=O)/C=C/c1ccc(O)c(O)c1 | 7 µM | – | – | – | 20% | 35 to 46%
O=C(/C=C/c1ccc(O)c(O)c1)NC1CCCC1 | 30 µM | – | – | – | – | 0%
Cc1ccccc1CNC(=O)/C=C/c1ccc(O)c(O)c1 | 20 µM | – | 25% | – | 33 to 49% | –
O=C(/C=C/c1ccc(O)c(O)c1)OC1CCCCC1 | 7 µM | – | 30% | – | – | –
O=c1cc(CO)occ1O [KOJIC ACID] | 57 µM | – | – | – | – | –
O=C(/C=C/c1ccc(O)c(O)c1)Nc1ccccc1 | 7.6 µM | – | 21% | – | – | –
O=C(/C=C/c1ccc(O)c(O)c1)NCc1ccccc1Cl | 6.5 µM | – | – | – | – | 0%
NS(=O)(=O)c1ccc(CNC(=O)/C=C/c2ccc(O)c(O)c2)cc1 | > 40 µM | – | – | – | – | 0%
O=C(/C=C/c1ccc(O)c(O)c1)N1CCCCC1 | 24 µM | – | – | – | – | 0%

These reach a lower IC50 (B16). Values come first.

IC50 (B16) | Compound | viability at 5 µM [1] | viability at 10 µM [2] | viability at 2.5 µM [3] | viability at 20 µM [4] | viability at 40 µM [5]
1.9 µM | O=C(/C=C/c1ccc(O)c(O)c1)Nc1cccc([N+](=O)[O-])c1 | 24 to 35% | 48% | – | – | –
1.2 µM | CCCCc1ccc(NC(=O)/C=C/c2ccc(O)c(O)c2)cc1 | 68 to 96% | – | 33 to 49% | – | –
3 µM | Cc1cccc(CNC(=O)/C=C/c2ccc(O)c(O)c2)c1 | – | 20% | – | 45% | –
0.2 µM | CC(=O)Oc1ccc(/C=C/C(=O)OC2CCCCC2)cc1OC(C)=O | – | – | 24% | – | –
5.8 µM | CC(C)(C)OC(=O)N1CCN(C(=O)/C=C/c2ccc(O)c(O)c2)CC1 | – | – | – | 31% | –
1.4 µM | O=C(/C=C/c1ccc(O)c(O)c1)Nc1ccc(C(F)(F)F)cc1 | 56 to 58% | 77 to 90% | – | – | –
6 µM | O=C(/C=C/c1ccc(O)c(O)c1)NCc1cccc(Cl)c1 | – | 22% | – | 59 to 62% | –
1.4 µM | O=C(/C=C/c1ccc(O)c(O)c1)NCc1cccc(C(F)(F)F)c1 | 24% | 29 to 47% | – | – | –
1.4 µM | O=C(/C=C/c1ccc(O)c(O)c1)Nc1cccc(C(F)(F)F)c1 | 60 to 82% | – | 22 to 36% | – | –
1.8 µM | O=C(/C=C/c1ccc(O)c(O)c1)NCc1ccccc1C(F)(F)F | 22 to 28% | 33 to 49% | – | – | –
2.8 µM | O=C(/C=C/c1ccc(O)c(O)c1)NC1CCCCC1 | – | 23% | – | – | –
1 µM | Cc1n[nH]c(NC(=O)/C=C/c2ccc(O)c(O)c2)c1-c1ccc(Br)cc1 | 68 to 93% | – | 29 to 56% | – | –
1.8 µM | O=C(/C=C/c1ccc(O)c(O)c1)NCc1ccc(Cl)cc1 | 23% | 39 to 53% | – | – | –
1.6 µM | O=C(/C=C/c1ccc(O)c(O)c1)NCc1ccc(C(F)(F)F)cc1 | 26% | 39 to 48% | – | – | –
1.4 µM | O=C(/C=C/c1ccc(O)c(O)c1)Nc1ccc([N+](=O)[O-])cc1 | 30 to 35% | 51 to 62% | – | – | –
3.7 µM | Cc1ccc(CNC(=O)/C=C/c2ccc(O)c(O)c2)cc1 | – | 20% | – | 22 to 30% | –
3.4 µM | CC(C)c1ccc(NC(=O)/C=C/c2ccc(O)c(O)c2)cc1 | 15% | 82% | – | – | –
6.2 µM | COc1ccc(CNC(=O)/C=C/c2ccc(O)c(O)c2)cc1 | – | – | – | 20% | 37 to 54%
